Source: patent publication US20200179339A1, “PHARMACEUTICALS COMPOSITIONS FOR TREATMENT OF ATOPIC DERMATITIS” (CADILA HEALTHCARE LIMITED, priority 2018, published 2020)

Columns and labels:
[1] = tested on: oxazolone induced atopic dermatitis in mice; assay: Ear thickness in oxazolone induced atopic dermatitis in mice; format: in vivo, female balb/c mice; parameters: Change in ear thickness: unit not given beside the values; conditions: for percentage inhibition in ear thickness (atopic dermatitis): topical; for % change: topical day 5 and day 6, ear thickness vs vehicle control; for Change in ear thickness: topical on left ear day 5 and day 6
Procedure: (§1) The 7-8 week old female balb/c mice used for the study were divided into four groups of six mice each. Animal shaved on their abdomen region. On day-1, Oxazolone (Sigma chemical Co. USA) was dissolved in ethanol and applied at a dose volume is 500 ug/100 μl/mouse on shaved abdomen side as sensitized dose. On day 5, basal ear thickness was measured and oxazolone (dissolved in acetone, (100 μg/20 μl)) applied on left side ear at a dose volume of 20 μl/mouse on day 5 and day 6. Post Two hours of oxazolone application, treatment drugs applied on left ear respectively. Treatment was applied on day 5 and day 6 and ear thickness was measured on day 5 (basal), day 6 and day 7.
All animals were assessed for the ear thickness measurement. Animals were sacrificed on day 7, Ear weight were taken and ear were collected for histology and gene expression.
as §1, with “into five” for “into four”, “20 μ/mouse” for “20 μl/mouse”
All animals were assessed for the ear thickness measurement. Animals were sacrificed on day 7, Ear weight were taken.

[2] = tested on: cyclo-oxygenase enzymes (COX); conditions: background statement; cited from earlier work
[3] = Study-1, text, Apremilast 3%, Diclofenac 1.5%
[4] = Study-1, Apremilast 3%, Diclofenac 1.5%
[5] = Study-1, Apremilast 3%, Diclofenac 1.5%, vehicle control 0.3
[6] = Study-2, text, Apremilast 1%, Diclofenac 1%
[7] = Study-2, Apremilast 1%, Diclofenac 1%
[8] = Study-2, Apremilast 1%, Diclofenac 1%, vehicle control 0.44

For CCOc1cc([C@@H](CS(C)(=O)=O)N2C(=O)c3cccc(NC(C)=O)c3C2=O)ccc1OC [Apremilast, (+)-2-[1-(3-ethoxy-4-methoxyphenyl)-2-methanesulfonylethyl]-4-acetylaminoisoindolin-1,3-dione], the “percentage inhibition in ear thickness (atopic dermatitis)” value (“percentage inhibition in ear thickness” below) [1, 3] was 38%, the “% change” value [1, 4] was 38.6% and the “Change in ear thickness” value [1, 5] was 0.18. For the same molecule, the “percentage inhibition in ear thickness” value [1, 6] was 45%, the “% change” value [1, 7] was 45.1% and the “Change in ear thickness” value [1, 8] was 0.24.

For O=C([O-])Cc1ccccc1Nc1c(Cl)cccc1Cl.[Na+] [Diclofenac, sodium salt of [2-(2,6-Dichloroanilino)phenyl]acetic acid], the “approximate relative COX-1/COX-2 specificity ratio” value [2] is given as “one”, the “percentage inhibition in ear thickness” value [1, 3] is given as 64% and the “% change” value [1, 4] is given as 63.8%. The “Change in ear thickness” value [1, 5] was 0.11, the “percentage inhibition in ear thickness” value [1, 6] was 37% and the “% change” value [1, 7] was 36.8%. For the same molecule, the “Change in ear thickness” value [1, 8] was 0.28.
